Patent US7723326B2, “Heterocyclic amide derivatives as RXR agonists for the treatment of dyslipidemia, hypercholesterolemia and diabetes” (Janssen Pharmaceutica N.V., priority 2005, dated 2010)
Values joined by “and” are separate entries in the source; they are usually repeats but may differ in a detail not shown here. Identical values can stand only once.

Experiments:
[1] = system: ABCA1 mRNA in THP-1 cells; assay: ABCA1 bDNA assay (ABCA1 mRNA induction); assay type: cell-based; conditions: Homo sapiens; for EC50: ABCA1 mRNA induction, usually 18-24 hrs
Description: THP-1 cells, a human monocytic cell line, were obtained from ATCC and maintained in RPMI (Gibco) supplemented with 10% fetal bovine serum (Gibco), 2mM L-glutamine and 1% antibiotic-antimycotic in 5% CO2 at 37° C. For ABCA1 mRNA induction assays, the cells were pelleted and resuspended in RPMI supplemented with 0.5% charcoal treated serum (Hyclone), 2 mM glutamine and 1% antibiotic-antimycotic. The cells were plated at a density of 40,000 cells/90 μl and incubated as above for at least 4 hours before the initiation of treatments. Compounds were prepared as 10 mM stocks in DMSO. For treatments, the compounds were diluted in medium and 10 μl of 10× stocks were added to the cells at a final concentration 0.1% DMSO. The cells were incubated for the desired amount of time (usually 18-24 hrs) and then lyzed with 50 μl of Quantigene HV bDNA lysis buffer which also contained the ABCA1 bDNA probes (probe sequences shown below): […]

[2] = target: T1, RXR ligand binding domain (accession number X52773) fused with the DNA binding domain of yeast GAL4 (Homo sapiens, UniProt P19793); assay: RXR co-transfection assay (GAL4-LBD luciferase reporter in HEK293 cells); assay type: cell-based; conditions: 16-18 hours
T1 construct: expressed in transfected cells; host or cells: HEK293
T1 sequence (P19793 227-458 limits assumed): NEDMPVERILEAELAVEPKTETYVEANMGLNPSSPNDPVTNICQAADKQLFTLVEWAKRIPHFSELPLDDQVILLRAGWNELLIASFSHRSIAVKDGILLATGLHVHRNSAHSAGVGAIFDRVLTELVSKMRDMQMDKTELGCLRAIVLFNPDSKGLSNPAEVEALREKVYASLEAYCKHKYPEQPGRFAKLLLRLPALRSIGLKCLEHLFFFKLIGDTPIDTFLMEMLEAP
Description: The nucleic acid sequence from 676-1464bp (accession number X52773) encoding the ligand binding domains was subcloned into the pM vector (BD Biosciences Clontech, Palo Alto, Calif.) and were fused with the DNA binding domain of yeast GAL4. HEK293 cells were cultured in DMEM/F12 medium supplemented with 10% FBS and 1% 1-glutamine (growth medium). Cells were seeded at a density of 5-10×10^6 cells in 50 ml of growth medium and left overnight, The medium was removed and the cells were washed with 15 ml of OptiMEM serum free medium (Invitrogen Corp). The cells were transfected using OptiMEM serum free medium and DMRIE transfection reagent (Invitrogen Corp). Approximately 10-30 ng of DNA for the different receptors and 5-10 ng of the luciferase reporter (1:1 ratio for RAR and 4:1 ratio for RXR of receptor DNA:reporter DNA) were gently mixed with 51 μl of DMRIE reagent in a total volume of 17 ml of OptiMEM medium. Eighteen hours after transfection, the cells were washed once with growth medium and then incubated for 6 hrs in 30 ml of growth medium. The cells were then trypsinized, and reseeded at a density of 50,000 per well in 96 well plates and left overnight. The medium was replaced with 90 μl of medium containing DMEM/F12 supplemented with 0.5% charcoal-treated FBS (HyClone; Logan, Utah) and 1% glutamine. Compounds or vehicle were added in 10 μl of 10× concentration of compound or vehicle (0.1% dimethyl sulfoxide). The cells were treated for 16-18 hours, lysed and assayed for luciferase activity using the Steady Gio luciferase assay kit (Promega, Madison, Wis.).

## Cc1cc2c(cc1-c1cc(CCC(=O)O)ccc1OC(F)(F)F)N(C(C)C)C(=O)C(C)(C)O2 [Compound 13, 3-[3-(4-Isopropyl-2,2,7-trimethyl-3-oxo-3,4-dihydro-2H-benzo[1,4]oxazin-6-yl)-4-trifluoromethoxy-phenyl]-propionic acid]
[1]
  EC50: > 2000 nM
[2]
  EC50: 347 nM

## CCN1C(=O)C(C)(C)Oc2cc(C)c(-c3cc(/C=C(\C)C(=O)O)ccc3OC(F)(F)F)cc21 [Compound 10, 3-[3-(4-Ethyl-2,2,7-trimethyl-3-oxo-3,4-dihydro-2H-benzo[1,4]oxazin-6-yl)-4-trifluoromethoxy-phenyl]-2-methyl-acrylic acid]
[1]; @3 μM, relative to MX-6054, read-out: ABCA1 % max MX-6054
  Emax at 3 µM: 37.2%
[1]
  EC50: > 2000 nM
[2]
  EC50: 1400 nM

## Cc1cc2c(cc1-c1cc(/C=C/C(=O)O)ccc1OCC(F)(F)F)N(C)C(=O)C(C)(C)O2 [Compound 5, 3-[3-(2,2,4,7-Tetramethyl-3-oxo-3,4-dihydro-2H-benzo[1,4]oxazin-6-yl)-4-(2,2,2-trifluoro-ethoxy)-phenyl]-acrylic acid]
[1]
  EC50: > 2000 nM
[2]
  EC50: > 2000 nM

## CCN1C(=O)C(C)(C)Oc2cc(C)c(-c3cc(/C=C/C(=O)O)ccc3OC(F)(F)F)cc21 [Compound 1, 3-[3-(4-Ethyl-2,2,7-trimethyl-3-oxo-3,4-dihydro-2H-benzo[1,4]oxazin-6-yl)-4-trifluoromethoxy-phenyl]-acrylic acid]
[1]
  EC50: 39.7 nM
[2]
  EC50: 151 nM and 180 nM and 189 nM
